Test results published in patent US20240374510A1, “COMPOSITIONS, USES AND METHODS FOR TREATMENT OF PERIODONTAL DISEASE” (THE UNIVERSITY OF BRITISH COLUMBIA, priority 2023, published 2024).

B1: HB-EGF: EGFR ligand heparin-binding EGF-like growth factor (protein, UniProt Q99075 63-148, looked up)
Heparin-binding EGF-like …: DLQEADLDLLRVTLSSKPQALATPNKEEHGKRKKKGKGLGKKRDPCLRKYKDFCIHGECKYVKELRAPSCICHPGYHGERCHGLSL

Experiments:
[1] = system: ITGB6; details: Bi et al., 2020; cited from earlier work
[2] = In-vitro release rate of gefitinib by the dialysis sack method; format: physicochemical; details: artificial saliva and cell culture medium
Protocol: The release rate of gefitinib from microparticles as described herein into each of two different liquids was tested. The two test liquids were: artificial saliva (SAE0149, Sigma Aldrich) and Dulbecco's Modified Eagle Medium (DMEM; Gibco, Life Technologies, Inc., Burlington, ON, Canada). These liquids were used to simulate the environment of the oral cavity and body fluid, respectively.
In each of these in-vitro experiments, a dry powder of spray-dried microparticles according to one of the tested formulations was mixed into the applicable test liquid at a concentration of 20 μg dry powder per ml of test liquid.
The in-vitro release behaviors of the formulations identified as (*1), (*2), (*3), and (*4) in Table 2 were each tested by the dialysis sack method (cutoff molecular weight 8 kDa; Spectra Por; Spectrum Chemical Mfg. Corp., New Brunswick, NJ, USA). All samples were incubated at room temperature with continuous shaking at 70 rpm. […] The fluid was analyzed for gefitinib content by HPLC. The release rate of gefitinib from suspensions of dry powders in liquid was calculated from the ratio of released gefitinib to the total gefitinib encapsulated in the powders.
The release rate of unencapsulated gefitinib was measured according to the same protocol described above for the spray-dried microparticles.

[3] = system: human gingival epithelial cell line (GEC); experiment: MTT test of cell viability and proliferation; format: cell-based; details: 24 h, unencapsulated gefitinib
Protocol: The spontaneously immortalized human gingival epithelial cell line (GEC; (Mäkelä et al., 1998)) was maintained in a humidified incubator at +37° C. with 95% relative humidity and 5% CO2 in DMEM supplemented with 23 mM sodium bicarbonate, 20 mM HEPES, 50 μg/ml streptomycin sulfate, 100 U/ml penicillin and 10% heat-inactivated fetal bovine serum (FBS; Gibco). […]
The MTT test (CellTiter Non-radioactive Cell Proliferation Assay, Promega, Madison, WI, USA) was used to assess the effect of the microparticle formulations on cell viability and proliferation (Twarużek et al., 2018). […] The Solubilization/Stop Solution was then added to the culture wells for 24 h to solubilize the formazan product, and the absorbance at 570 nm was recorded with a microplate reader (iMark, Bio-Rad Laboratories, Hercules, CA, USA). […]
In each test, the cells were exposed to the formulation being tested for 24 h and then analyzed for cell numbers using the MTT test. Absorbance values of the untreated samples in each replicate experiment were set to 1, and the mean±s.e.m. of the relative results of 10-18 replicated experiments is presented. *, relative to untreated cells; +, difference between the same concentration of gefitinib and control microparticles; */+, p<0.05; **/++, p<0.01; ***/+++, p<0.001. […]

[4] = system: ITGB6; experiment: Rescue of β6 integrin gene expression in GECs by RT-qPCR; format: cell-based, human
Protocol: GECs were seeded into cell culture dishes and allowed to grow to confluency for two days in their complete growth medium. The cells were then rinsed once with PBS and switched to FBS-free DMEM for 2 h in the presence or absence of one of: one of the suspensions of gefitinib-microparticles as above, one of the suspensions of respective control microparticles as above or 0.3 μM gefitinib. HB-EGF (5 ng/ml) and TGF-β1 (2 ng/ml; Millipore) were then added to the cells for a further 24 h.
The cells were then rinsed with PBS and used for RNA isolation and quantitative real-time reverse transcription PCR (RT-qPCR). Briefly, total RNA was extracted using PuroSPIN™ MINI Spin Columns (Luna Nanotech, Inc., Markham, ON, Canada) and the LogSpin method (Yaffe et al., 2012), and RNA concentration and purity were determined by spectrophotometry (NanoDrop One, Thermo Fisher Scientific, Waltham, MA, USA). 1 μg of total RNA was reverse-transcribed into cDNA using the High-Capacity cDNA Reverse Transcription Kit (Applied Biosystems, Thermo Fisher Scientific). […]
Asparagine-linked glycosylation 9 (ALG9) and glyceraldehyde-3-phosphate dehydrogenase (GAPDH) were used as reference genes for the target gene ITGB6 in triplicates. […] The data were analyzed using the Applied Biosystems Relative Quantification Analysis Module. […]

Molecule	blocking of ITGB6 downregulation by HB-EGF [1]	further results
C=CC(=O)Nc1cc2c(Nc3ccc(F)c(Cl)c3)ncnc2cc1OCCCN1CCOCC1 [canertinib]	capable of dose-dependently blocking ITGB6 downregulation	–
COc1cc2ncnc(Nc3ccc(F)c(Cl)c3)c2cc1NC(=O)/C=C/CN1CCCCC1 [dacomitinib]	capable of dose-dependently blocking ITGB6 downregulation	–
C#Cc1cccc(Nc2ncnc3cc(OCCOC)c(OCCOC)cc23)c1 [erlotinib]	capable of dose-dependently blocking ITGB6 downregulation	–
COc1cc2ncnc(Nc3ccc(F)c(Cl)c3)c2cc1OCCCN1CCOCC1 [gefitinib]	capable of dose-dependently blocking ITGB6 downregulation	release rate of gefitinib, in words [2]: quickly released; gefitinib concentration giving the corresponding GEC growth inhibition (baseline levels) [3]: 0.3 µM
CS(=O)(=O)CCNCc1ccc(-c2ccc3ncnc(Nc4ccc(OCc5cccc(F)c5)c(Cl)c4)c3c2)o1 [lapatinib]	capable of dose-dependently blocking ITGB6 downregulation	–
TGF-β1: transforming growth factor-β1, used to upregulate ITGB6	–	upregulation of ITGB6 expression ([4]; TGF-β1 alone, 2 ng/ml, 24 h): about seven-fold
B1	–	reduction of the TGF-β1 upregulation of ITGB6 ([4]; addition of HB-EGF 5 ng/ml to TGF-β1): about 60%
